This note sets out measurements from ChEMBL document CHEMBL1629698, “Identification of the novel dfrK-carrying transposon Tn559 in a porcine methicillin-susceptible Staphylococcus aureus ST398 strain” (2010).

≈ marks a conversion by molar mass, not a printed value.

The subject of the test is Staphylococcus aureus. Description: Antimicrobial activity against Staphylococcus aureus 2171 by broth microdilution method. It is filed as functional. For orientation: Broth dilution looks for growth in wells or tubes with falling amounts of substance.
In general, MIC refers to the lowest concentration that inhibits growth of the organism. A high value points to a less susceptible organism. Regarding `CC1(C)S[C@@H]2[C@H](NC(=O)[C@H](N)c3ccccc3)C(=O)N2[C@H]1C(=O)O` [AMPICILLIN], the MIC is 4 µg/mL (≈ 11.4 µM).

For the compound `CCC[C@@H]1C[C@@H](C(=O)N[C@@H]([C@H]2O[C@H](SC)[C@H](O)[C@@H](O)[C@H]2O)[C@H](C)Cl)N(C)C1` [CLINDAMYCIN], the MIC was not below 128 µg/mL.

Consider `CCN1CCN(c2cc3c(cc2F)c(=O)c(C(=O)O)cn3C2CC2)CC1` [ENROFLOXACIN], for which inhibition of growth (MIC) required 8 µg/mL (≈ 22.3 µM).

Compound `CC[C@H]1OC(=O)[C@H](C)[C@@H](O[C@H]2C[C@@](C)(OC)[C@@H](O)[C@H](C)O2)[C@H](C)[C@@H](O[C@@H]2O[C@H](C)C[C@H](N(C)C)[C@H]2O)[C@](C)(O)C[C@@H](C)C(=O)[C@H](C)[C@@H](O)[C@]1(C)O` [ERYTHROMYCIN] gave a minimum inhibitory concentration (MIC) not below 64 µg/mL.

The compound `Cc1onc(-c2ccccc2)c1C(=O)N[C@@H]1C(=O)N2[C@@H]1SC(C)(C)[C@@H]2C(=O)O` [OXACILLIN] displayed an MIC of 0.5 µg/mL (≈ 1.25 µM).

`CC1(C)S[C@@H]2[C@H](NC(=O)Cc3ccccc3)C(=O)N2[C@H]1C(=O)O` [PENICILLIN G]: the MIC was found to be 8 µg/mL (≈ 23.9 µM).

In the case of `CN(C)[C@@H]1C(O)=C(C(N)=O)C(=O)[C@@]2(O)C(O)=C3C(=O)c4c(O)cccc4[C@@](C)(O)[C@H]3C[C@@H]12` [TETRACYCLINE], 32 µg/mL (≈ 72 µM) was the least that counted as inhibitory (MIC).

Consider `COc1cc(Cc2cnc(N)nc2N)cc(OC)c1OC` [TRIMETHOPRIM], for which the MIC was not below 128 µg/mL.
